Consider 11 molecules from ChEMBL document CHEMBL5723379, “Affinity On-target Cellular Literature for EUbOPEN Chemogenomic Library” (2024).

Where only a bound is given, the exact number is not on record here.

The target of assay [1] is Nuclear receptor subfamily 1 group I member 2 (Homo sapiens, UniProt O75469). Put plainly: Affinity On-target Cellular interaction: (Reporter gene assay (HEK293T cells)) EUB0002358a NR1I2. The assay is classed as functional, cell-based, HEK-293T. The arrangement: mode of action Agonist, recommended concentration 10 uM. In general terms: Reporter assays use an easily measured gene product as a stand-in for the process of interest.

Assay [2] deals with Nuclear receptor subfamily 1 group D member 2 (Homo sapiens, UniProt Q14995). Put plainly: Affinity On-target Cellular interaction: (Reporter gene assay (HEK293T cells)) EUB0001155a NR1D2. More on the design: mode of action Agonist, recommended concentration 10 uM. It is filed as functional, cell-based, HEK-293T.
Assay [3] deals with Nuclear receptor subfamily 1 group D member 1 (Homo sapiens, UniProt P20393). Put plainly: Affinity On-target Cellular interaction: (Reporter gene assay (HEK293T cells)) EUB0001155a NR1D1. It is filed as functional, cell-based, HEK-293T. The arrangement: mode of action Agonist, recommended concentration 10 uM.
Assay [4] deals with Histone-lysine N-methyltransferase EZH1 (Homo sapiens, UniProt Q92800). Put plainly: Affinity On-target Cellular interaction: (Protein substrate methylation in WSU-DLCL2 cells) EUB0002228a EZH1. It is filed as functional, cell-based, WSUDLCL2. More on the design: mode of action Inhibitor, recommended concentration 1 uM.
Assay [5] deals with Thyroid hormone receptor beta (Homo sapiens, UniProt P10828). Put plainly: Affinity On-target Cellular interaction: (Reporter gene assay (HEK293T cells)) EUB0002355a THRB. More on the design: mode of action Antagonist, recommended concentration 3 uM. It is filed as functional, cell-based, HEK-293T.
The target in assay [6] is T1, Oxysterols receptor LXR-alpha (Homo sapiens, UniProt Q13133).
T1 sequence (Q13133 whole entry): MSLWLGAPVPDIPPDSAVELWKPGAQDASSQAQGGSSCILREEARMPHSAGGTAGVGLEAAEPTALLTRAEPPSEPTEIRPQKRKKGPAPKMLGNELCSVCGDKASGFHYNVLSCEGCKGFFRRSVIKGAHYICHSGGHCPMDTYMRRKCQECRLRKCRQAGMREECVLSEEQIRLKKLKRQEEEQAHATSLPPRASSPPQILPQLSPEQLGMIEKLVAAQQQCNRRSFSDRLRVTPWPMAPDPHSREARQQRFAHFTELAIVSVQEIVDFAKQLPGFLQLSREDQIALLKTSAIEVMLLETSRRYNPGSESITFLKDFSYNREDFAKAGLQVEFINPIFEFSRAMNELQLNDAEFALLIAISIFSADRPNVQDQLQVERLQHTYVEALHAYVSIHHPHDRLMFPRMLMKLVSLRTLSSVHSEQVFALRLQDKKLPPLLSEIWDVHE
Put plainly: Affinity On-target Cellular interaction: (Reporter gene assay (HEK293T cells)) EUB0001482aCl NR1H3. The assay is classed as functional, cell-based, HEK-293T. The arrangement: mode of action Agonist, recommended concentration 10 uM.

The target of assay [7] is T2, Oxysterols receptor LXR-beta (Homo sapiens, UniProt P55055).
T2 sequence (P55055 whole entry): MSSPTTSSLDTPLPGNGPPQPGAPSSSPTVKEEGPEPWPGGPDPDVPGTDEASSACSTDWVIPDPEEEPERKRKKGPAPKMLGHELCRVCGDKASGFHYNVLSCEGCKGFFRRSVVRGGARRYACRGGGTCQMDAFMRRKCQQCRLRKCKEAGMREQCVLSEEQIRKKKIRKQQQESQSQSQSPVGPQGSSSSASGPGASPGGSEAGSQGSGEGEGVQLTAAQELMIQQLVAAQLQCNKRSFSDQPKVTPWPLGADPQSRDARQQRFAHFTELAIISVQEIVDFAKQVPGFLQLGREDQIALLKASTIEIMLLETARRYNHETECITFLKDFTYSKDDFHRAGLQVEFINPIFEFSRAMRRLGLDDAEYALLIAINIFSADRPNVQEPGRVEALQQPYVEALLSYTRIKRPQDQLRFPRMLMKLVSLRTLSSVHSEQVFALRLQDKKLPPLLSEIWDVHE
Put plainly: Affinity On-target Cellular interaction: (Reporter gene assay (HEK293T cells)) EUB0001482aCl NR1H2. The assay is classed as functional, cell-based, HEK-293T. More on the design: mode of action Agonist, recommended concentration 10 uM.

For another assay, the target named is Adenosine kinase (Homo sapiens, UniProt P55263). Put plainly: Affinity On-target Cellular interaction: (Intact cell adenosine phosphorylation assay (radiochemical), IMR-32 human neuroblastoma cells) EUB0002485aCl ADK. The assay is classed as functional, cell-based. The arrangement: mode of action Inhibitor, recommended concentration 1 uM.
In another assay the target is Bile acid receptor (Homo sapiens, UniProt Q96RI1). Put plainly: Affinity On-target Cellular interaction: (Reporter gene assay (HEK293T cells)) EUB0001168a NR1H4. It is filed as functional, cell-based, HEK-293T. The arrangement: mode of action Agonist, recommended concentration 1 uM.
In assay [8] the target is T3, Nuclear receptor ROR-gamma (Homo sapiens, UniProt P51449).
T3 sequence (P51449 whole entry): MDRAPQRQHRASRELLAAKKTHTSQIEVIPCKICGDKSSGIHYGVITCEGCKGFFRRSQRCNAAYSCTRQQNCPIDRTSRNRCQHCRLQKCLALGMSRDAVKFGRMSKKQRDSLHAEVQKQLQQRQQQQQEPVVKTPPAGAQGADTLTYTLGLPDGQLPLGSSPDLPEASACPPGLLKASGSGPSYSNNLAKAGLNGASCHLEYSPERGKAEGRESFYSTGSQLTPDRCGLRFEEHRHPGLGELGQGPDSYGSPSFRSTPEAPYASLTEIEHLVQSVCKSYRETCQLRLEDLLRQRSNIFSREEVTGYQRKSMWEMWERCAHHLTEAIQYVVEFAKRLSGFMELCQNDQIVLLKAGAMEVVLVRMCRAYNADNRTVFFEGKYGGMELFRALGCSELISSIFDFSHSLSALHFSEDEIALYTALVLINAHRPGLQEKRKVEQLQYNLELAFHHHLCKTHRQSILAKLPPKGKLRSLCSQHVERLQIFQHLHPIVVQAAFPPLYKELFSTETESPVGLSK

In assay [9] the target is T2, Oxysterols receptor LXR-beta. Put plainly: Affinity On-target Cellular interaction: (Reporter gene assay (HEK293T cells)) EUB0001167a NR1H2. It is filed as functional, cell-based, HEK-293T. More on the design: mode of action Agonist, recommended concentration 1 uM.
Assay [10] deals with Triacylglycerol hydrolase DDHD2 (Homo sapiens, UniProt O94830). Put plainly: Affinity On-target Cellular interaction: (Inhibition of DDHD2 in HEK293T cells measured by competitive activity-based protein profiling) EUB0002612a DDHD2. It is filed as functional, cell-based, HEK-293T. The arrangement: mode of action Inhibitor, recommended concentration 1 uM.
For assay [11], the target named is T4, Sodium-dependent neutral amino acid transporter B(0)AT1 (Homo sapiens, UniProt Q695T7). Put plainly: Affinity On-target Cellular interaction: (Fluorescence imaging plate reader (FLIPR) membrane potential (FMP) assay, MDCK cells) EUB0002537a SLC6A19. It is filed as functional, cell-based. More on the design: mode of action Inhibitor, recommended concentration 1 uM.

The target of assay [12] is T4, Sodium-dependent neutral amino acid transporter B(0)AT1. Put plainly: Affinity On-target Cellular interaction: (Stable isotope uptake assay, MDCK cells) EUB0002537a SLC6A19. More on the design: mode of action Inhibitor, recommended concentration 1 uM. It is filed as functional, cell-based.

T4 sequence (Q695T7 whole entry): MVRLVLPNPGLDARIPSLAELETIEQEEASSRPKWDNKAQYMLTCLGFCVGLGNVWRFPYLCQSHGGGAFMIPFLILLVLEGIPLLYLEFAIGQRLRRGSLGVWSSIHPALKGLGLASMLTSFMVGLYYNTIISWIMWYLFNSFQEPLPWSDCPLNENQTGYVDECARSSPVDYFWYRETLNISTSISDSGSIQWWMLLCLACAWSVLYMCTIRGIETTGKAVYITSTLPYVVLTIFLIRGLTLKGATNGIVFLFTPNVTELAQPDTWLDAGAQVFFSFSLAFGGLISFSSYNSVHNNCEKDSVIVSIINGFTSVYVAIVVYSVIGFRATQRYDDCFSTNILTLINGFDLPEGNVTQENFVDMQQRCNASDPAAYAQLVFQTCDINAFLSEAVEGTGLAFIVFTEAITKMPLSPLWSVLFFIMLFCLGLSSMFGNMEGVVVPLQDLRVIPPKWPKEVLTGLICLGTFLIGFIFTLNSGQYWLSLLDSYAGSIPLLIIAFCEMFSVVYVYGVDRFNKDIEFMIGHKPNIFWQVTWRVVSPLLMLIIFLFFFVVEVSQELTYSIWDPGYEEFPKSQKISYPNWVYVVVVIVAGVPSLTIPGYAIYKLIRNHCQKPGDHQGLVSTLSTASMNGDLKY
Chain of Nuclear receptor subfamily 1 group D member 1 (P20393 whole entry): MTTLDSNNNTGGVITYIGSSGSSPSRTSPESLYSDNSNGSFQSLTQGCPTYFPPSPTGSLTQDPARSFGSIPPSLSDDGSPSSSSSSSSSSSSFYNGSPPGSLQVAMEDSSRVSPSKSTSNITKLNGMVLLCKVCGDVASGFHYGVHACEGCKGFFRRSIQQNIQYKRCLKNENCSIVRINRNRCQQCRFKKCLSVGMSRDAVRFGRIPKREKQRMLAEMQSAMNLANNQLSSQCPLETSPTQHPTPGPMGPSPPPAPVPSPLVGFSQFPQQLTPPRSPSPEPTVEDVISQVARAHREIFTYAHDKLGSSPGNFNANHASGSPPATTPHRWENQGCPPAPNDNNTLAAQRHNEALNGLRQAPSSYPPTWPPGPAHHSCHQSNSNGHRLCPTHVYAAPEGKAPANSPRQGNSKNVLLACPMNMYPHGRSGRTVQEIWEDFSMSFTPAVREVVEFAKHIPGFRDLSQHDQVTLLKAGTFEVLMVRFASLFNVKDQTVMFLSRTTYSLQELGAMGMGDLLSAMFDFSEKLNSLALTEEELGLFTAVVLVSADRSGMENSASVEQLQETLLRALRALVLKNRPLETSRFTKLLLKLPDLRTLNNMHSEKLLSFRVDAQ
Chain of Nuclear receptor subfamily 1 group D member 2 (Q14995 whole entry): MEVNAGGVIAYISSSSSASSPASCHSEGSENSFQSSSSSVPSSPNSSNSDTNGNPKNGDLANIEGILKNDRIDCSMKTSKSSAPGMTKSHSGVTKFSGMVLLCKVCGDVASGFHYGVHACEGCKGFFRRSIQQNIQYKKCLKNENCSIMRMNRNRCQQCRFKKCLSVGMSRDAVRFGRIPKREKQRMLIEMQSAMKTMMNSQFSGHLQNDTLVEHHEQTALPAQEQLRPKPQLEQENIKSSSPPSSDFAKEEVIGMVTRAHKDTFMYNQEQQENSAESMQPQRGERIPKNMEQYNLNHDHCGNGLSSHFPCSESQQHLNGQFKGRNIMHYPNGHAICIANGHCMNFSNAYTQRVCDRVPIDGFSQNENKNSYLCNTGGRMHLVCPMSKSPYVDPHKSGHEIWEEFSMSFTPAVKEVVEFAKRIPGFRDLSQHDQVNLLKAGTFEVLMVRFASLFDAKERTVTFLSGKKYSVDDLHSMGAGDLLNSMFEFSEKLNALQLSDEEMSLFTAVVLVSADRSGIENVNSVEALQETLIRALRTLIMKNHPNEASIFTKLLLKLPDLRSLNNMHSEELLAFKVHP
Chain of Histone-lysine N-methyltransferase EZH1 (Q92800 whole entry): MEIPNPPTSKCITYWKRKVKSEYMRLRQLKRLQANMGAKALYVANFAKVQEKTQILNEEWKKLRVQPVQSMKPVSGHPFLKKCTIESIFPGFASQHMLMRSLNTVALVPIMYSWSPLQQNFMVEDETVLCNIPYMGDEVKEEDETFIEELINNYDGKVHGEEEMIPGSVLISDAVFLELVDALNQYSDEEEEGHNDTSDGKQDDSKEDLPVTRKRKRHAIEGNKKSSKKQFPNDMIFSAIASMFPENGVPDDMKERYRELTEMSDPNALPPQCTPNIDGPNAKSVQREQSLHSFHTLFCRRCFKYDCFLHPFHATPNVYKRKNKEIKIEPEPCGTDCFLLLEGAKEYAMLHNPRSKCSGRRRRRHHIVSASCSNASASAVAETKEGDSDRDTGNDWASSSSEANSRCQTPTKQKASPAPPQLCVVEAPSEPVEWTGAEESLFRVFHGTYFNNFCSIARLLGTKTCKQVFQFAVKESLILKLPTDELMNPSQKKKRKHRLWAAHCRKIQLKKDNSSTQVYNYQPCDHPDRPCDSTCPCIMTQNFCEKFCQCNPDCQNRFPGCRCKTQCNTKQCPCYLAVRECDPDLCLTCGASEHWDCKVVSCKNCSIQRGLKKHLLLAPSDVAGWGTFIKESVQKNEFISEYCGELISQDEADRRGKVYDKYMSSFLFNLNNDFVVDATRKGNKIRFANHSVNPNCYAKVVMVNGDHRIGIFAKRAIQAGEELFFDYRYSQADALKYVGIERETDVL
Chain of Thyroid hormone receptor beta (P10828 whole entry): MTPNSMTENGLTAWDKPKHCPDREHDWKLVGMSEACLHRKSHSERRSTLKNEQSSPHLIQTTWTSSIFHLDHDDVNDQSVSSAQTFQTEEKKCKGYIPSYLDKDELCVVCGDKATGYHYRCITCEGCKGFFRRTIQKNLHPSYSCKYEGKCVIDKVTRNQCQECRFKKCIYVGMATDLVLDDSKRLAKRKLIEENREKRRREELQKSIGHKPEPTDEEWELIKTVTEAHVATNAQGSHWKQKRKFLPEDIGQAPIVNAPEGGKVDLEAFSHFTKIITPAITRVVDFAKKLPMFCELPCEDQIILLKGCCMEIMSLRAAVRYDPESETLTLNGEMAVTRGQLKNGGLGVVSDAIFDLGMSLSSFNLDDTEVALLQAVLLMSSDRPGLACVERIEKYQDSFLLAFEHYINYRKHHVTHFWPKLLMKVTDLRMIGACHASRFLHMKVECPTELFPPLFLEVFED
Chain of Nuclear receptor subfamily 1 group I member 2 (O75469 whole entry): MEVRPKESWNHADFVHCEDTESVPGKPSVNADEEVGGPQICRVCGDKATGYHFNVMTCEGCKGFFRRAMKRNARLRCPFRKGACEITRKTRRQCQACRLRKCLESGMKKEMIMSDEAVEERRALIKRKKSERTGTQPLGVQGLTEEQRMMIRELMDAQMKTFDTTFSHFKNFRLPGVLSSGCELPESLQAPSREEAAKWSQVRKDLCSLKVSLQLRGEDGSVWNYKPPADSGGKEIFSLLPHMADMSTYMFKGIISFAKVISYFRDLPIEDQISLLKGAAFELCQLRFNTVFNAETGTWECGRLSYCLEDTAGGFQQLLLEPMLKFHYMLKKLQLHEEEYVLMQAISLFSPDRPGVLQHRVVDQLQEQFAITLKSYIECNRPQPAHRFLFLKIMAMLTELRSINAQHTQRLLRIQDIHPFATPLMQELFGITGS
Chain of Bile acid receptor (Q96RI1 whole entry): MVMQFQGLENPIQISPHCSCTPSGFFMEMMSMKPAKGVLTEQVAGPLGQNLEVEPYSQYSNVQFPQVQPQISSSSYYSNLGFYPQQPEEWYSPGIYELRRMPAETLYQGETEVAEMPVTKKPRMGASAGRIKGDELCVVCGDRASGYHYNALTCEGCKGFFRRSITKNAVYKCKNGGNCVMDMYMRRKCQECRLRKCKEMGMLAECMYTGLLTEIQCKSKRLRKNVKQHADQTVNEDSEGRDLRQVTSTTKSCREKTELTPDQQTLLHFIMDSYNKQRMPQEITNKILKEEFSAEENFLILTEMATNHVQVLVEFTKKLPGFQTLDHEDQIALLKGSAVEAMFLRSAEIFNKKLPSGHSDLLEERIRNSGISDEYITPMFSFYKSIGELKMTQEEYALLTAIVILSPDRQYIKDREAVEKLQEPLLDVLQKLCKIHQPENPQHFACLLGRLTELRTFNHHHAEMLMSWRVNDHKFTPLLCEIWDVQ
Chain of Triacylglycerol hydrolase DDHD2 (O94830 whole entry): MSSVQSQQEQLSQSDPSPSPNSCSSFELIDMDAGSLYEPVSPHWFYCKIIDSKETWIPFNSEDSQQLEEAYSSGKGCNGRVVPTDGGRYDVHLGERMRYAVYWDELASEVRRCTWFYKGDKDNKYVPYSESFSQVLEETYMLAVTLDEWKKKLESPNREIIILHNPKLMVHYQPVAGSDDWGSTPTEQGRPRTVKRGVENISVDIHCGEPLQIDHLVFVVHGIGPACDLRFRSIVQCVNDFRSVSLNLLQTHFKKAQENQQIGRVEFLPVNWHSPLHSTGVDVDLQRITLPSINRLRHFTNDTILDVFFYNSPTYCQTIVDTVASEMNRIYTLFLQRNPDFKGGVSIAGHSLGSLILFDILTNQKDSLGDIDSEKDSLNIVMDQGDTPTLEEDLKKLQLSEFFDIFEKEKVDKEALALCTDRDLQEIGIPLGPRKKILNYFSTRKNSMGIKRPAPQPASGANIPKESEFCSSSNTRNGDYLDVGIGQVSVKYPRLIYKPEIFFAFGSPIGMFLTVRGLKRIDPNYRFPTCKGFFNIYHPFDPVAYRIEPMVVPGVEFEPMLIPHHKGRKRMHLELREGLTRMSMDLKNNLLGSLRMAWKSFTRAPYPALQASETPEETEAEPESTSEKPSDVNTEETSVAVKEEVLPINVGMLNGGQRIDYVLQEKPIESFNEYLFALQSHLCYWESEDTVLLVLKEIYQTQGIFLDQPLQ

The term EC50 denotes the concentration at which the effect is half-maximal. Molecule `O=c1[nH]c2ccccc2n1CCCN1CCN(C(c2ccccc2)c2ccccc2)CC1` [OXATOMIDE] registered a 50% effective concentration (EC50) in assay [1] of 6000 nM. On to `CCCCCNC(=O)N1CCC(CN(Cc2ccc(Cl)cc2)Cc2ccc([N+](=O)[O-])s2)C1` (centres undefined) [SR9011], for which the EC50 in assay [2] was 3000 nM; in assay [3], 2000 nM. For orientation: IC50 means the concentration that gives 50% inhibition. `CCN(c1cc(C#CCN2CCOCC2)cc(C(=O)NCc2c(C)cc(C)[nH]c2=O)c1C)[C@H]1CC[C@H](N(C)CCOC)CC1`: the IC50 in [4] is below 100 nM. With `Cc1oc2ccccc2c1Cc1cc(I)c(OCC(=O)O)c(I)c1`, in [5], the IC50 came to 2000 nM. That is a single-digit micromolar value. With `C[C@H](CCOc1cccc(CC(=O)O)c1)N(Cc1cccc(C(F)(F)F)c1Cl)CC(c1ccccc1)c1ccccc1`, the EC50 was 3300 nM in assay [6] and 2900 nM in [7]. `Nc1ncnc2nc(-c3ccc(N4CCOCC4)nc3)cc(-c3cccc(Br)c3)c12` gave an IC50 against Adenosine kinase of 51 nM. Regarding `O=C(O)c1ccnc(N2CC(O)(c3ccc(OCc4c(-c5c(Cl)cccc5Cl)noc4C4CC4)cc3Cl)C2)c1` [CILOFEXOR], on Bile acid receptor, the half-maximal effective concentration (EC50) amounted to 40 nM.

Consider `O=C(Nc1ccc(C(O)(C(F)(F)F)C(F)(F)F)cc1)c1ccc(C(F)(F)F)cc1`, for which the EC50 in [8] was 2000 nM. `CC(=O)Oc1ccc2c(c1)[C@@]1(C)CCC[C@](C)(C(=O)OC(=O)[C@@]3(C)CCC[C@]4(C)c5cc(OC(C)=O)ccc5CC[C@@H]34)[C@@H]1CC2` [ACETYL PODOCARPIC ACID ANHYDRIDE] gave an EC50 in [9] of 1 nM. In the case of `O=C(N(CCc1ccccc1)C1CCCCC1)n1ncc(-c2ccc(OC(F)(F)F)cc2)n1`, the IC50 in assay [10] came to 3.6 nM. `CCNC(=O)/C=C/c1cccc(Br)c1` [CINROMIDE]: the half-inhibitory concentration (IC50) amounted to 280 nM in assay [11] and 370 nM in assay [12].
